Data taken from PubChem BioAssay AID2060497 (Molecular Pharmacology Branch, DTP, NCI, 2025).

Tested on: 317291-083-R-J1-PDC complex spheroids, viability
Assay: Anticancer human tumor 317291-083-R-J1-PDC patient-derived soft tissue sarcoma cell line growth inhibition [GQUAD]
Details: for IC50: curve of first compound; for viability, T/C: stronger effect = lower value
Outline: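 Tumor cells were grown as complex spheroids with HUVEC endothelial cells and mesenchymal stem cells as stroma. G-quadruplex stabilizers were combined with targeted agents over half-log dilutions from near the clinical Cmax, or from 10 microM.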

[1] = second compound 0.0316 µM, first compound 0.0316 µM
[2] = second compound 0.0316 µM, first compound 0.316 µM
[3] = second compound 0.1 µM, first compound 0.0316 µM
[4] = second compound 0.1 µM, first compound 0.316 µM
[5] = second compound 0.316 µM, first compound 0.0316 µM
[6] = second compound 0.316 µM, first compound 0.316 µM
[7] = second compound 1 µM, first compound 0.0316 µM
[8] = second compound 1 µM, first compound 0.316 µM
[9] = second compound 3.16 µM, first compound 0.0316 µM
[10] = second compound 3.16 µM, first compound 0.316 µM
[11] = second compound 10 µM, first compound 0.0316 µM
[12] = second compound 10 µM, first compound 0.316 µM
[13] = second compound 0.0316 µM, first compound 0.1 µM
[14] = second compound 0.0316 µM, first compound 1 µM
[15] = second compound 0.0316 µM, first compound 3.16 µM
[16] = second compound 0.0316 µM, first compound 10 µM
[17] = second compound 0.1 µM, first compound 0.1 µM
[18] = second compound 0.1 µM, first compound 1 µM
[19] = second compound 0.1 µM, first compound 3.16 µM
[20] = second compound 0.1 µM, first compound 10 µM
[21] = second compound 0.316 µM, first compound 0.1 µM
[22] = second compound 0.316 µM, first compound 1 µM
[23] = second compound 0.316 µM, first compound 3.16 µM
[24] = second compound 0.316 µM, first compound 10 µM
[25] = second compound 1 µM, first compound 0.1 µM
[26] = second compound 1 µM, first compound 1 µM
[27] = second compound 1 µM, first compound 3.16 µM
[28] = second compound 1 µM, first compound 10 µM
[29] = second compound 3.16 µM, first compound 0.1 µM
[30] = second compound 3.16 µM, first compound 1 µM
[31] = second compound 3.16 µM, first compound 3.16 µM
[32] = second compound 3.16 µM, first compound 10 µM
[33] = second compound 10 µM, first compound 0.1 µM
[34] = second compound 10 µM, first compound 1 µM
[35] = second compound 10 µM, first compound 3.16 µM
[36] = second compound 10 µM, first compound 10 µM
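Note: spheroids exposed to compounds for one week before readout.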
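Throughout, for viability, T/C: percent viability relative to DMSO vehicle wells taken as 100%.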

CCc1c2c(nc3ccc(O)cc13)-c1cc3c(c(=O)n1C2)COC(=O)[C@]3(O)CC + Cc1[nH]c2ccc(F)cc2c1-c1nc2c3cccnc3c3ncccc3c2[nH]1
IC50 (second compound 0.0316 µM): 1.69 nM | IC50 (second compound 0.1 µM): 1.59 nM | IC50 (second compound 0.316 µM): 1.51 nM | IC50 (second compound 1 µM): 1.76 nM | IC50 (second compound 3.16 µM): 1.46 nM | IC50 (second compound 10 µM): < 0.999 nM | viability, T/C (second compound 0.0316 µM, first compound 0.000999 µM): 71.4% | viability, T/C (second compound 0.0316 µM, first compound 0.00316 µM): 23.9% | viability, T/C (second compound 0.0316 µM, first compound 0.00999 µM): 12.8% | viability, T/C [1]: 8.37% | viability, T/C (second compound 0.0316 µM, first compound 0.0999 µM): 6.91% | viability, T/C [2]: 4.31% | viability, T/C (second compound 0.1 µM, first compound 0.000999 µM): 70.2% | viability, T/C (second compound 0.1 µM, first compound 0.00316 µM): 19.9% | viability, T/C (second compound 0.1 µM, first compound 0.00999 µM): 8.9% | viability, T/C [3]: 10% | viability, T/C (second compound 0.1 µM, first compound 0.0999 µM): 7.96% | viability, T/C [4]: 3.98% | viability, T/C (second compound 0.316 µM, first compound 0.000999 µM): 66.7% | viability, T/C (second compound 0.316 µM, first compound 0.00316 µM): 18.4% | viability, T/C (second compound 0.316 µM, first compound 0.00999 µM): 16.5% | viability, T/C [5]: 8.55% | viability, T/C (second compound 0.316 µM, first compound 0.0999 µM): 6.58% | viability, T/C [6]: 4.87% | viability, T/C (second compound 1 µM, first compound 0.000999 µM): 75.8% | viability, T/C (second compound 1 µM, first compound 0.00316 µM): 22.1% | viability, T/C (second compound 1 µM, first compound 0.00999 µM): 14.6% | viability, T/C [7]: 9.41% | viability, T/C (second compound 1 µM, first compound 0.0999 µM): 6.65% | viability, T/C [8]: 5.39% | viability, T/C (second compound 3.16 µM, first compound 0.000999 µM): 65.4% | viability, T/C (second compound 3.16 µM, first compound 0.00316 µM): 18.1% | viability, T/C (second compound 3.16 µM, first compound 0.00999 µM): 8.2% | viability, T/C [9]: 8.72% | viability, T/C (second compound 3.16 µM, first compound 0.0999 µM): 6.44% | viability, T/C [10]: 4.32% | viability, T/C (second compound 10 µM, first compound 0.000999 µM): 37.7% | viability, T/C (second compound 10 µM, first compound 0.00316 µM): 14.2% | viability, T/C (second compound 10 µM, first compound 0.00999 µM): 9.41% | viability, T/C [11]: 9.06% | viability, T/C (second compound 10 µM, first compound 0.0999 µM): 5.65% | viability, T/C [12]: 7.19%

Nc1ccn(C2OC(CO)C(O)C2(F)F)c(=O)n1 (stereo unspecified) + Cc1cnc(CNC(=O)c2c(=O)c3ccc(N4CCCN(C)CC4)nc3n3c2sc2ccccc23)cn1
IC50 (second compound 0.0316 µM): 34.7 nM | IC50 (second compound 0.1 µM): < 31.6 nM | IC50 (second compound 0.316 µM): < 31.6 nM | IC50 (second compound 1 µM): < 31.6 nM | IC50 (second compound 3.16 µM): < 31.6 nM | IC50 (second compound 10 µM): < 31.6 nM | viability, T/C [1]: 53.1% | viability, T/C [13]: 20.4% | viability, T/C [2]: 17.6% | viability, T/C [14]: 11.2% | viability, T/C [15]: 8.79% | viability, T/C [16]: 6.85% | viability, T/C [3]: 43.9% | viability, T/C [17]: 39.9% | viability, T/C [4]: 11.6% | viability, T/C [18]: 15.9% | viability, T/C [19]: 8.93% | viability, T/C [20]: 7.45% | viability, T/C [5]: 43.4% | viability, T/C [21]: 19.6% | viability, T/C [6]: 11.2% | viability, T/C [22]: 8.54% | viability, T/C [23]: 14.6% | viability, T/C [24]: 8.2% | viability, T/C [7]: 31.5% | viability, T/C [25]: 21.2% | viability, T/C [8]: 26.3% | viability, T/C [26]: 6.79% | viability, T/C [27]: 8.1% | viability, T/C [28]: 7.55% | viability, T/C [9]: 19% | viability, T/C [29]: 17.5% | viability, T/C [10]: 9.09% | viability, T/C [30]: 7.43% | viability, T/C [31]: 5.04% | viability, T/C [32]: 5.88% | viability, T/C [11]: 16.9% | viability, T/C [33]: 24.9% | viability, T/C [12]: 7% | viability, T/C [34]: 8.35% | viability, T/C [35]: 5.09% | viability, T/C [36]: 8.27%

C=CC(=O)N1CCN(c2nc(=O)n(-c3c(C)ccnc3C(C)C)c3nc(-c4c(O)cccc4F)c(F)cc23)C(C)C1 (stereo unspecified) + CN(C)c1ccc(Nc2c3ccc(NC(=O)CCN4CCCC4)cc3nc3cc(NC(=O)CCN4CCCC4)ccc23)cc1
IC50 (second compound 0.0316 µM): > 10000 nM | IC50 (second compound 0.1 µM): > 10000 nM | IC50 (second compound 0.316 µM): > 10000 nM | IC50 (second compound 1 µM): 1420 nM | IC50 (second compound 3.16 µM): < 31.6 nM | IC50 (second compound 10 µM): < 31.6 nM | viability, T/C [1]: 105% | viability, T/C [13]: 90.8% | viability, T/C [2]: 114% | viability, T/C [14]: 113% | viability, T/C [15]: 98.4% | viability, T/C [16]: 65.2% | viability, T/C [3]: 115% | viability, T/C [17]: 100% | viability, T/C [4]: 99.1% | viability, T/C [18]: 107% | viability, T/C [19]: 91.8% | viability, T/C [20]: 70.8% | viability, T/C [5]: 81.5% | viability, T/C [21]: 69.9% | viability, T/C [6]: 73.2% | viability, T/C [22]: 91.2% | viability, T/C [23]: 82.9% | viability, T/C [24]: 51.4% | viability, T/C [7]: 57% | viability, T/C [25]: 44.1% | viability, T/C [8]: 52.3% | viability, T/C [26]: 81.2% | viability, T/C [27]: 30.2% | viability, T/C [28]: 22.5% | viability, T/C [9]: 32.1% | viability, T/C [29]: 22% | viability, T/C [10]: 29.2% | viability, T/C [30]: 51.6% | viability, T/C [31]: 42.4% | viability, T/C [32]: 21.1% | viability, T/C [11]: 13.5% | viability, T/C [33]: 15.1% | viability, T/C [12]: 8.38% | viability, T/C [34]: 8.02% | viability, T/C [35]: 6.86% | viability, T/C [36]: 23.1%
